Results taken from patent publication US20120178666A1 (SHIRE LLC, priority 2009, published 2012).

How the values were obtained:
[1] = Comparative pharmacokinetic screening study of guanfacine prodrugs in the monkey; settings: oral gavage
Method: Blood samples were taken on 4 sampling occasions at various times up to 6 hours after administration and submitted to analysis for the parent drug and prodrug using a qualified LC-MS-MS assay.

[2] = Prodrug stability in simulated gastric fluid (USP); settings: 37° C.
Method: (§1) The remaining concentrations of the prodrugs were then assayed by HPLC.

[3] = Prodrug stability in simulated intestinal fluid (USP); settings: 37° C.
Method: as §1

With CN(CC(=O)O)C(=O)NC(=N)NC(=O)Cc1c(Cl)cccc1Cl [Compound 9, Guanfacine Sarcosine Urea] the “prodrug levels in plasma (in words)” value [1] was “high prodrug levels”.
With CC(C)[C@@H](N)C(=O)NCCC(=O)NC(=N)NC(=O)Cc1c(Cl)cccc1Cl [Compound 11, Guanfacine β-Alanine-(R)-Valine Amide] the “% prodrug remaining following incubation for: 1 h in simulated gastric fluid pH 1.1” value [2] was 79% and the “prodrug levels in plasma (in words)” value [1] was “detectable prodrug levels in plasma”.
With CC(C)[C@H](N)C(=O)N[C@@H](COC(=O)NC(=N)NC(=O)Cc1c(Cl)cccc1Cl)C(=O)O [Compound 17, (S)-Valine-(S)-Serine(Guanfacine) Carbamate] the “% prodrug remaining following incubation for: 2 h in simulated intestinal fluid pH 6.8” value [3] was 78%, the “% prodrug remaining following incubation for: 1 h in simulated gastric fluid pH 1.1” value [2] was 93% and the “prodrug levels in plasma (in words)” value [1] was “total absence of prodrug in the plasma”.
In the case of CC(C)[C@@H](N)C(=O)N[C@H](CCC(=O)NC(=N)NC(=O)Cc1c(Cl)cccc1Cl)C(=O)O [Compound 31, (R)-Valine-(R)-γ-Glutamate(Guanfacine) Amide], the “% prodrug remaining following incubation for: 2 h in simulated intestinal fluid pH 6.8” value [3] is reported as 85% and the “% prodrug remaining following incubation for: 1 h in simulated gastric fluid pH 1.1” value [2] is reported as 70%.
For CC(C)[C@H](N)C(=O)N[C@H](CCC(=O)NC(=N)NC(=O)Cc1c(Cl)cccc1Cl)C(=O)O [Compound 32, (S)-Valine-(R)-γ-Glutamate (Guanfacine) Amide], the “% prodrug remaining following incubation for: 2 h in simulated intestinal fluid pH 6.8” value [3] was 84% and the “% prodrug remaining following incubation for: 1 h in simulated gastric fluid pH 1.1” value [2] was 93%.
With CC(C)[C@H](NC(=O)CC(C)(C)CC(=O)NC(=N)NC(=O)Cc1c(Cl)cccc1Cl)C(=O)O [Compound 33, Guanfacine 3,3 dimethylglutaryl (Valine) Amide] the “% prodrug remaining following incubation for: 2 h in simulated intestinal fluid pH 6.8” value [3] was 99% and the “% prodrug remaining following incubation for: 1 h in simulated gastric fluid pH 1.1” value [2] was 79%.
For O=C1CCN=C(NC(=O)Cc2c(Cl)cccc2Cl)N1 [Compound 34, Guanfacine β Alanine Cyclic adduct], the “% prodrug remaining following incubation for: 2 h in simulated intestinal fluid pH 6.8” value [3] was 91% and the “% prodrug remaining following incubation for: 1 h in simulated gastric fluid pH 1.1” value [2] was 51%.
With O=C(O)CC[C@@H]1N=C(NC(=O)Cc2c(Cl)cccc2Cl)NC1=O [Compound 37, Guanfacine-(S)-Glutamic Cyclic adduct] the “% prodrug remaining following incubation for: 2 h in simulated intestinal fluid pH 6.8” value [3] was 110%, the “% prodrug remaining following incubation for: 1 h in simulated gastric fluid pH 1.1” value [2] was 58% and the “prodrug levels in plasma (in words)” value [1] was “high prodrug levels”.
For NC(=O)CC[C@@H]1N=C(NC(=O)Cc2c(Cl)cccc2Cl)NC1=O [Compound 38, Guanfacine-(S)-Glutamine Cyclic adduct], the “% prodrug remaining following incubation for: 2 h in simulated intestinal fluid pH 6.8” value [3] was 87% and the “% prodrug remaining following incubation for: 1 h in simulated gastric fluid pH 1.1” value [2] was 70%.
For C[C@@H](N)C(=O)N[C@@H](CCC(=O)NC(=N)NC(=O)Cc1c(Cl)cccc1Cl)C(=O)O [Compound 41, (R)-Alanine-(S)-γ-Glutamate(Guanfacine) Amide], the “% prodrug remaining following incubation for: 2 h in simulated intestinal fluid pH 6.8” value [3] was 83%, the “% prodrug remaining following incubation for: 1 h in simulated gastric fluid pH 1.1” value [2] was 70% and the “prodrug levels in plasma (in words)” value [1] was “detectable prodrug levels in plasma”.
With CC(C)C[C@@H](N)C(=O)N[C@@H](CCC(=O)NC(=N)NC(=O)Cc1c(Cl)cccc1Cl)C(=O)O [Compound 42, (R)-Leucine-(S)-γ-Glutamate(Guanfacine) Amide] the “% prodrug remaining following incubation for: 2 h in simulated intestinal fluid pH 6.8” value [3] was 83% and the “% prodrug remaining following incubation for: 1 h in simulated gastric fluid pH 1.1” value [2] was 70%.
In the case of N=C(NC(=O)CC[C@H](NC(=O)[C@H](N)CCCCN)C(=O)O)NC(=O)Cc1c(Cl)cccc1Cl [Compound 43, Guanfacine-(S)-γ-Glutamate-(R)-Lysine Amide], the “% prodrug remaining following incubation for: 2 h in simulated intestinal fluid pH 6.8” value [3] is reported as 85% and the “% prodrug remaining following incubation for: 1 h in simulated gastric fluid pH 1.1” value [2] is reported as 62%.
For CSCC[C@@H](N)C(=O)N[C@@H](CCC(=O)NC(=N)NC(=O)Cc1c(Cl)cccc1Cl)C(=O)O [Compound 44, (R)-Methionine-(S)-γ-Glutamate(Guanfacine) Amide], the “% prodrug remaining following incubation for: 2 h in simulated intestinal fluid pH 6.8” value [3] was 85% and the “% prodrug remaining following incubation for: 1 h in simulated gastric fluid pH 1.1” value [2] was 75%.
In the case of N=C(NC(=O)CC[C@H](NC(=O)[C@H](N)Cc1ccc(O)cc1)C(=O)O)NC(=O)Cc1c(Cl)cccc1Cl [Compound 45, Guanfacine-(S)-γ-Glutamate-(R)-Tyrosine Amide], the “% prodrug remaining following incubation for: 2 h in simulated intestinal fluid pH 6.8” value [3] is reported as 91% and the “% prodrug remaining following incubation for: 1 h in simulated gastric fluid pH 1.1” value [2] is reported as 74%.
For N=C(NC(=O)CC[C@H](NC(=O)[C@H](N)CCC(N)=O)C(=O)O)NC(=O)Cc1c(Cl)cccc1Cl [Compound 46, (R)-Glutamine-(S)-γ-Glutamate(Guanfacine) Amide], the “% prodrug remaining following incubation for: 2 h in simulated intestinal fluid pH 6.8” value [3] was 81% and the “% prodrug remaining following incubation for: 1 h in simulated gastric fluid pH 1.1” value [2] was 61%.
For N=C(NC(=O)CC[C@H](NC(=O)[C@H](N)CO)C(=O)O)NC(=O)Cc1c(Cl)cccc1Cl [Compound 47, (R)-Serine-(S)-γ-Glutamate(Guanfacine) Amide], the “% prodrug remaining following incubation for: 2 h in simulated intestinal fluid pH 6.8” value [3] was 89% and the “% prodrug remaining following incubation for: 1 h in simulated gastric fluid pH 1.1” value [2] was 72%.
For CCC(C)[C@@H](N)C(=O)NCCCC(=O)NC(=N)NC(=O)Cc1c(Cl)cccc1Cl (stereo partly drawn) [Compound 50, Guanfacine (GABA-(R)-Isoleucine) Amide], the “% prodrug remaining following incubation for: 2 h in simulated intestinal fluid pH 6.8” value [3] was 81% and the “% prodrug remaining following incubation for: 1 h in simulated gastric fluid pH 1.1” value [2] was 85%.
In the case of N=C(NC(=O)Cc1c(Cl)cccc1Cl)NC(=O)c1ccc(N)cc1 [Compound 52, Guanfacine PABA Amide], the “% prodrug remaining following incubation for: 2 h in simulated intestinal fluid pH 6.8” value [3] is reported as 97% and the “% prodrug remaining following incubation for: 1 h in simulated gastric fluid pH 1.1” value [2] is reported as 84%.
With CC(C)[C@@H](N)C(=O)N[C@@H](C(=O)NC(=N)NC(=O)Cc1c(Cl)cccc1Cl)C(C)C [Compound 54, Guanfacine (R)-Valine-(R)-Valine Amide] the “% prodrug remaining following incubation for: 2 h in simulated intestinal fluid pH 6.8” value [3] was 66% and the “% prodrug remaining following incubation for: 1 h in simulated gastric fluid pH 1.1” value [2] was 73%.
With CC(C)[C@@H](NC(=O)c1ccc(N)cc1)C(=O)NC(=N)NC(=O)Cc1c(Cl)cccc1Cl [Compound 55, Guanfacine (R)-Valine-PABA Amide] the “% prodrug remaining following incubation for: 2 h in simulated intestinal fluid pH 6.8” value [3] was 91% and the “% prodrug remaining following incubation for: 1 h in simulated gastric fluid pH 1.1” value [2] was 65%.
In the case of N=C(NC(=O)Cc1c(Cl)cccc1Cl)NC(=O)OCCNC(=O)CC[C@H](N)C(=O)O [Compound 58, Guanfacine (ethanolamine-(S)-γ-Glutamate) Carbamate], the “% prodrug remaining following incubation for: 2 h in simulated intestinal fluid pH 6.8” value [3] is reported as 99% and the “% prodrug remaining following incubation for: 1 h in simulated gastric fluid pH 1.1” value [2] is reported as 96%.
With CC[C@H](C)[C@H](N)C(=O)NCCOC(=O)NC(=N)NC(=O)Cc1c(Cl)cccc1Cl [Compound 59, Guanfacine (ethanolamine-(S)-Isoleucine) Carbamate] the “% prodrug remaining following incubation for: 2 h in simulated intestinal fluid pH 6.8” value [3] was 100% and the “% prodrug remaining following incubation for: 1 h in simulated gastric fluid pH 1.1” value [2] was 92%.
In the case of N=C(NC(=O)CC[C@H](NC(=O)c1ccc(C(=O)O)cc1)C(=O)O)NC(=O)Cc1c(Cl)cccc1Cl [Compound 60, Terephthalic acid-(S)-γ-Glutamate(Guanfacine) Amide], the “% prodrug remaining following incubation for: 2 h in simulated intestinal fluid pH 6.8” value [3] is reported as 97% and the “% prodrug remaining following incubation for: 1 h in simulated gastric fluid pH 1.1” value [2] is reported as 81%.
For N=C(NC(=O)Cc1c(Cl)cccc1Cl)NC(=O)OC[C@H](NC(=O)CCN)C(=O)O [Compound 64, β-Alanine-(S)-Serine (Guanfacine) Carbamate], the “% prodrug remaining following incubation for: 2 h in simulated intestinal fluid pH 6.8” value [3] was 93% and the “% prodrug remaining following incubation for: 1 h in simulated gastric fluid pH 1.1” value [2] was 88%.
With N=C(NC(=O)Cc1c(Cl)cccc1Cl)NC(=O)OCC[C@H](N)C(=O)O [Compound 65, (S)-Homoserine Guanfacine Carbamate] the “% prodrug remaining following incubation for: 2 h in simulated intestinal fluid pH 6.8” value [3] was 99% and the “% prodrug remaining following incubation for: 1 h in simulated gastric fluid pH 1.1” value [2] was 90%.
In the case of N=C(NC(=O)Cc1c(Cl)cccc1Cl)NC(=O)OCC[C@H](NC(=O)CCN)C(=O)O [Compound 67, β-Alanine-(S)-Homoserine (Guanfacine) Carbamate], the “% prodrug remaining following incubation for: 2 h in simulated intestinal fluid pH 6.8” value [3] is reported as 97% and the “% prodrug remaining following incubation for: 1 h in simulated gastric fluid pH 1.1” value [2] is reported as 99%.
For CC(C)(COC(=O)NC(=N)NC(=O)Cc1c(Cl)cccc1Cl)[C@@H](O)C(=O)NCCC(=O)O [Compound 68, Guanfacine Pantothenic acid Carbamate], the “% prodrug remaining following incubation for: 2 h in simulated intestinal fluid pH 6.8” value [3] was 75% and the “% prodrug remaining following incubation for: 1 h in simulated gastric fluid pH 1.1” value [2] was 86%.
For CC(C)(CO)[C@@H](O)C(=O)NCCCOC(=O)NC(=N)NC(=O)Cc1c(Cl)cccc1Cl [Compound 69, Guanfacine Panthenol Carbamate], the “% prodrug remaining following incubation for: 2 h in simulated intestinal fluid pH 6.8” value [3] was 96% and the “% prodrug remaining following incubation for: 1 h in simulated gastric fluid pH 1.1” value [2] was 85%.
With N=C(NC(=O)CC[C@H](NC(=O)c1ccc(N)cc1)C(=O)O)NC(=O)Cc1c(Cl)cccc1Cl [Compound 70, Guanfacine PABA-(S)-Glutamate (Guanfacine) Amide] the “% prodrug remaining following incubation for: 2 h in simulated intestinal fluid pH 6.8” value [3] was 93% and the “% prodrug remaining following incubation for: 1 h in simulated gastric fluid pH 1.1” value [2] was 64%.
With CNCC(=O)NCCOC(=O)NC(=N)NC(=O)Cc1c(Cl)cccc1Cl [Compound 71, Guanfacine ethanolamine-Sarcosine Carbamate] the “% prodrug remaining following incubation for: 2 h in simulated intestinal fluid pH 6.8” value [3] was 89% and the “% prodrug remaining following incubation for: 1 h in simulated gastric fluid pH 1.1” value [2] was 91%.
